Experimental data taken from patent US8877745B2, “CCR2 receptor antagonists, method for producing the same, and use thereof as medicaments” (Boehringer Ingelheim International GmbH, priority 2010, dated 2014).

Target: T1, CCR2 (Homo sapiens, UniProt P41597)
T1 construct: Membranes were prepared from THP-1 cells; endogenous in cells; host or cells: THP-1 (human acute monocytic leukaemia cells), membrane preparation
Experiment: CCR2 receptor membrane binding assay ([125I]MCP-1, THP-1 cell membranes, SPA beads)
Settings: THP-1 membranes, [125I]MCP-1, bound radioactivity determined after 8 h; read-out: hKi
Protocol: The above exemplary substances have been tested for binding to CCR2 using a binding assay as outlined herein below:
THP-1 cells (human acute monocytic leukaemia cells) were cultured under standardized conditions at 37° C. and 5% CO2 in a humidified incubator. THP-1 cells were cultivated in RPMI 1640 medium (Gibco 21875) containing 1% MEM-NEAA (Gibso 11140) 2 mM L-glutamine, 1.5 g/L sodium bicarbonate, 4.5 g/L glucose, 10 mM HEPES and 1.0 mM sodium pyruvate, 90%; 10% fetal calf serum (FCS Gibco 10500-064).
Membranes were prepared from THP-1 cells. THP-1 cells were centrifuged at 300×g at 4° C. for 10 min. The cell pellet was resuspended in Phosphate Buffer Saline (PBS, including 10 μM Pefabloc and a protease inhibitor mix ‘complete’, Boehringer Mannheim (1 tablet/50 ml)), to a concentration of […]. The membrane preparation was performed by disrupting the cells by nitrogen […] (at 50 bar, for 1 h) in a “Nitrogen Bombe” (Parr Instrument). Cell debris was removed by centrifugation (800×g at 4° C., 1 min). The supernatant was centrifuged at 80000×g, 4° C. for 30 min to sediment the cell membranes. Usually 50 mg of protein (Bradford assay) were yielded from 1×10E9 cells. The membranes were resuspended in 25 mM HEPES, 25 mM MgCl2, 1 mM CaCl2, 10% Glycerine for storage in aliquots at −80° C. in 25 mM HEPES, 25 mM MgCl2, 1 mM CaCl2, 10% Glycerine and stored at −80° C.
Receptor Membrane Binding Assay:
Perkin Elmer NEX 332 Jod 125 MCP-1, Stock: 2200 Ci/mmol solved in […] assay buffer, stored at −20° C. THP-1 membrane were adjusted with 25 mM HEPES, pH 7.2; 5 mM MgCl2; 0.5 mM CaCl2; 0.2% BSA assay buffer to a concentration of 2.5 μg/15 μl. Amersham Biosciences PVT-WGA Beads (RPNQ0001) were adjusted with assay buffer to a concentration of 0.24 mg/30 μl. For preparation of the membrane-bead-suspension membranes and beads were incubated for 30 min at RT under rotation (60 rpm) with a ratio of 1:2. Test compounds dissolved in 100% DMSO to a concentration of 10 mM and are further diluted with 100% DMSO to 1 mM. All additional compound dilutions were obtained with assay buffer, final 1% DMSO. Compounds, membrane-bead-suspension and [^125I]MCP-1 (ca. 25000 cpm/10 μl) were incubated. Bound radioactivity was determined by scintillation counter after 8 h. Determination of affinity of test compounds (dissociation constant hKi) is calculated by iterative fitting of experimental data using the “easy sys” program, which is based on law of mass action (Schittkowski K. (1994), Numerische Mathematik, Vol. 68, 129-142).

T1 sequence (P41597 whole entry): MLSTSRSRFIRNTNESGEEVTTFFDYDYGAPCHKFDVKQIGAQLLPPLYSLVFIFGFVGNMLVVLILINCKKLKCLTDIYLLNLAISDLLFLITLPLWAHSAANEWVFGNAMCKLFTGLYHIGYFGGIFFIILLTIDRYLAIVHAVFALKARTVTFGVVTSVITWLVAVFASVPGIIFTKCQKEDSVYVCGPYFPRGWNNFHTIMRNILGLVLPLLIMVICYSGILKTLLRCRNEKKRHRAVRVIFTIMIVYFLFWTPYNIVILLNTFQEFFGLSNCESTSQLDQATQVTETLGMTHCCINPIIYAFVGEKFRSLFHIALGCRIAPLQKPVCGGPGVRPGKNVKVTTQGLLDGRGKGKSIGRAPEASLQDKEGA

Ki | Structure (SMILES)
42 nM | COC1COCCC1NC1CCN(C(=O)c2ncnc(N3CCc4ccc(C)cc4C3)c2C)CC1 (stereo not shown) [Example 59]
5 nM | COC1COCCC1NC1CCN(C(=O)c2ncnc(N3CCc4ccc(C(F)(F)F)cc4C3)c2C)CC1 (stereo not shown) [Example 60]
309 nM | COC1COCCC1NC1CCN(C(=O)c2ncnc(N3CCc4ncc(C(F)(F)F)cc4C3)c2C)CC1 (stereo not shown) [Example 61]
590 nM | COC1COCCC1NC1CCN(C(=O)c2ncnc(N3CCC4(CCc5ccccc54)CC3)c2C)CC1 (stereo not shown) [Example 62]
566 nM | CO[C@@H]1COCC[C@@H]1NC1CCN(C(=O)c2cc(N3CCc4ccc(C(F)(F)F)cc4C3)ncn2)CC1 [Example 62a]
89 nM | COC1COCCC1NC1CCN(C(=O)c2ncnc(N3CCN(c4ccccc4Cl)CC3)c2C)CC1 (stereo not shown) [Example 62aa]
16 nM | COC1COCCC1NC1CCN(C(=O)c2ncnc(N3CCC4(CCc5cc(Br)ccc5O4)CC3)c2C)CC1 (stereo not shown) [Example 62ab]
1000 nM | COC1COCCC1NC1CCN(C(=O)c2ncnc(N3CCn4cc(C(F)(F)F)nc4C3)c2C)CC1 (stereo not shown) [Example 62ac]
336 nM | COC1COCCC1NC1CCN(C(=O)c2ncnc(N3CCN(c4ccc5c(c4)OCCO5)CC3)c2C)CC1 (stereo not shown) [Example 62ad]
49 nM | COc1cc(N2CCN(c3ncnc(C(=O)N4CCC(NC5CCOCC5OC)CC4)c3C)CC2)cc(C(F)(F)F)c1 (stereo not shown) [Example 62ae]
257 nM | COC1COCCC1NC1CCN(C(=O)c2ncnc(N3CCN(c4cccc(C)c4)CC3)c2C)CC1 (stereo not shown) [Example 62af]
40 nM | COC1COCCC1NC1CCN(C(=O)c2ncnc(N3CCN(c4ccc(Cl)cc4Cl)CC3)c2C)CC1 (stereo not shown) [Example 62ag]
41 nM | COC1COCCC1NC1CCN(C(=O)c2ncnc(N3CCN(c4cccc(C)c4C)CC3)c2C)CC1 (stereo not shown) [Example 62ah]
34 nM | COC1COCCC1NC1CCN(C(=O)c2ncnc(N3CCN(c4c(C)cccc4C)CC3)c2C)CC1 (stereo not shown) [Example 62ai]
35 nM | COC1COCCC1NC1CCN(C(=O)c2ncnc(N3CCN(c4c(Cl)cncc4Cl)CC3)c2C)CC1 (stereo not shown) [Example 62aj]
145 nM | COC1COCCC1NC1CCN(C(=O)c2ncnc(N3CCN(c4cc(F)cc(F)c4)CC3)c2C)CC1 (stereo not shown) [Example 62ak]
128 nM | COC1COCCC1NC1CCN(C(=O)c2ncnc(N3CCN(c4ccc(Cl)c(Cl)c4)CC3)c2C)CC1 (stereo not shown) [Example 62al]
12 nM | CO[C@@H]1COCC[C@@H]1NC1CCN(C(=O)c2ncnc(N3CCC4(CCc5cc(Br)ccc5O4)CC3)c2C)CC1 [Example 62am]
12 nM | CO[C@@H]1COCC[C@@H]1NC1CCN(C(=O)c2ncnc(N3CCC4(CCc5cc(Cl)ccc5O4)CC3)c2C)CC1 [Example 62an]
357 nM | COC1COCCC1NC1CCN(C(=O)c2ncnc(N3CC4CC4(c4cccc(C(F)(F)F)c4)C3)c2C)CC1 (stereo not shown) [Example 62b]
351 nM | COC1COCCC1NC1CCN(C(=O)c2ncnc(N3CC4CC4(c4cc(C(F)(F)F)cc(C(F)(F)F)c4)C3)c2C)CC1 (stereo not shown) [Example 62c]
305 nM | COC1COCCC1NC1CCN(C(=O)c2ncnc(N3CCCN(c4ccccc4C)CC3)c2C)CC1 (stereo not shown) [Example 62d]
419 nM | COC1COCCC1NC1CCN(C(=O)c2ncnc(N3CCC(c4ccccc4Cl)C3)c2C)CC1 (stereo not shown) [Example 62e]
9560 nM | COC1COCCC1NC1CCN(C(=O)c2ncnc(N3CCCC4(CCCCC4)C3)c2C)CC1 (stereo not shown) [Example 62f]
538 nM | COC1COCCC1NC1CCN(C(=O)c2ncnc(N3CCC4(CC3)CC(=O)c3cc(F)ccc3O4)c2C)CC1 (stereo not shown) [Example 62g]
983 nM | COC1COCCC1NC1CCN(C(=O)c2ncnc(N3CCC4(CC3)CC(=O)c3ccccc3O4)c2C)CC1 (stereo not shown) [Example 62h]

Ki | Structure (SMILES)
184 nM | COC1COCCC1NC1CCN(C(=O)c2ncnc(N3CCC4(CC3)CC(=O)c3cc(Br)ccc3O4)c2C)CC1 (stereo not shown) [Example 62i]
516 nM | COC1COCCC1NC1CCN(C(=O)c2ncnc(N3CCCN(c4ccc(Cl)cc4)CC3)c2C)CC1 (stereo not shown) [Example 62j]
12 nM | COC1COCCC1NC1CCN(C(=O)c2ncnc(N3CCc4ccc(C(C)C)cc4C3)c2C)CC1 (stereo not shown) [Example 62k]
1380 nM | COC1COCCC1NC1CCN(C(=O)c2ncnc(N3Cc4ccccc4C4(CC4)C3)c2C)CC1 (stereo not shown) [Example 62l]
300 nM | COC1COCCC1NC1CCN(C(=O)c2ncnc(N3CCN(c4ccccc4C)CC3)c2C)CC1 (stereo not shown) [Example 62m]
192 nM | COC1COCCC1NC1CCN(C(=O)c2ncnc(N3CCCC(c4ccccc4)CC3)c2C)CC1 (stereo not shown) [Example 62n]
1080 nM | COC1COCCC1NC1CCN(C(=O)c2ncnc(N3CCC4CC4(c4ccc(Br)cc4)C3)c2C)CC1 (stereo not shown) [Example 62o]
119 nM | COC1COCCC1NC1CCN(C(=O)c2ncnc(N3CCN(c4ccc(C(F)(F)F)cc4)CC3)c2C)CC1 (stereo not shown) [Example 62p]
780 nM | COC1COCCC1NC1CCN(C(=O)c2ncnc(N3CCN(c4ccc5c(c4)OCO5)CC3)c2C)CC1 (stereo not shown) [Example 62q]
411 nM | COC1COCCC1NC1CCN(C(=O)c2ncnc(N3CCN(c4ncnc5scc(C)c45)CC3)c2C)CC1 (stereo not shown) [Example 62r]
5140 nM | COC1COCCC1NC1CCN(C(=O)c2ncnc(N3CCn4c(-c5ccccc5)cnc4C3)c2C)CC1 (stereo not shown) [Example 62s]
17 nM | COC1COCCC1NC1CCN(C(=O)c2ncnc(N3CCN(c4cc(Cl)cc(Cl)c4)CC3)c2C)CC1 (stereo not shown) [Example 62t]
114 nM | COC1COCCC1NC1CCN(C(=O)c2ncnc(N3CCN(c4ccc(F)c(Cl)c4)CC3)c2C)CC1 (stereo not shown) [Example 62u]
54 nM | COC1COCCC1NC1CCN(C(=O)c2ncnc(N3CCN(c4ccc(Cl)c(C(F)(F)F)c4)CC3)c2C)CC1 (stereo not shown) [Example 62w]
18 nM | COC1COCCC1NC1CCN(C(=O)c2ncnc(N3CCN(c4cccc(Cl)c4Cl)CC3)c2C)CC1 (stereo not shown) [Example 62x]
12 nM | COC1COCCC1NC1CCN(C(=O)c2ncnc(N3CCN(c4ccc(Cl)cc4C)CC3)c2C)CC1 (stereo not shown) [Example 62y]
30 nM | COC1COCCC1NC1CCN(C(=O)c2ncnc(N3CCN(c4ccccc4C(F)(F)F)CC3)c2C)CC1 (stereo not shown) [Example 62z]
4 nM | CO[C@@H]1COCC[C@@H]1NC1CCN(C(=O)c2ncnc(N3CCc4ccc(C(F)(F)F)cc4C3)c2C)CC1 [Example 63]
13 nM | CO[C@H]1COCC[C@H]1NC1CCN(C(=O)c2ncnc(N3CCc4ccc(C(F)(F)F)cc4C3)c2C)CC1 [Example 64]
16 nM | CO[C@@H]1COCC[C@@H]1NC1CCN(C(=O)c2ncnc(N3CCc4ccc(OC(F)(F)F)cc4C3)c2C)CC1 [Example 65]
22 nM | CO[C@@H]1COCC[C@@H]1NC1CCN(C(=O)c2ncnc(N3CCc4ccc(Cl)cc4C3)c2C)CC1 [Example 66]
21 nM | COc1c(C(=O)N2CCC(N[C@@H]3CCOC[C@@H]3OC)CC2)ncnc1N1CCc2ccc(C(F)(F)F)cc2C1 [Example 67]
50 nM | COc1c(C(=O)N2CCC(N3CCC(N(C)S(C)(=O)=O)CC3)CC2)ncnc1N1CCc2ccc(C(F)(F)F)cc2C1 [Example 68]
62 nM | COc1c(C(=O)N2CCC(N3CCC(N(C)S(C)(=O)=O)CC3)CC2)ncnc1N1CCc2ccc(OC(F)(F)F)cc2C1 [Example 69]
30 nM | CO[C@@H]1COCC[C@@H]1NC1CCN(C(=O)c2ccnc(N3CCc4ccc(C(F)(F)F)cc4C3)c2C)CC1 [Example 69a]
37 nM | Cc1c(C(=O)N2CCC(N[C@@H]3CCOC[C@@H]3F)CC2)ncnc1N1CCc2ccc(Br)cc2C1 [Example 69ab]
